Results on 47 compounds are retold here after BindingDB's records for doi:10.7270/Q2WQ02FK (The Scripps Research Institute Molecular Screening Center, 2013).

The structures appear in SMILES notation.

In general, IC50 refers to the concentration that gives 50% inhibition.

The target of the experiment is T1, T cell receptor alpha variable 4 (Homo sapiens, UniProt A0A0B4J268).
T1 sequence (A0A0B4J268 whole entry): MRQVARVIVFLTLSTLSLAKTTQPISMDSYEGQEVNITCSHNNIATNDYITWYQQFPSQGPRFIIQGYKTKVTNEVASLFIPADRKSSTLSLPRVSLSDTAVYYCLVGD
As to `CC1=CC(/C=N/n2c(COc3ccccc3C)nc3ccccc3c2=O)C(=O)C([N+](=O)[O-])=C1` (configuration not stated), the half-inhibitory concentration (IC50) is above 94.1 µM. The compound `COc1ccc(CC(=O)N/N=C/C2C=C([N+](=O)[O-])C=C(Br)C2=O)cc1` (configuration not stated) gave an IC50 above 94.1 µM. In the case of `CC1=CC(/C=N/n2c(CO[N-][C+](C)c3ccccc3)nc3ccccc3c2=O)C(=O)C([N+](=O)[O-])=C1` (configuration not stated) it was above 94.1 µM; in that of `O=C(N/N=C/C1C=CC=C([N+](=O)[O-])C1=O)c1cccs1` (configuration not stated), above 94.1 µM. As to `COC1=CC([N+](=O)[O-])=CC(/C=N/NC(=O)c2cc(C)nc3ccccc23)C1=O` (configuration not stated), the half-maximal inhibitory concentration (IC50) is above 94.1 µM. `O=C(N/N=C/C1C=C([N+](=O)[O-])C=CC1=O)c1cccc(N2CCCC2=O)c1` (configuration not stated) had an IC50 above 94.1 µM.

Consider `CCOC(=O)C1C(CC)=Nc2ccccc2N=C1NC(=O)Nc1ccc(Cl)c(Cl)c1` (configuration not stated), for which the half-inhibitory concentration (IC50) was determined as 10.7 µM. As for `O=C(NN=CC1=CC(=O)C(=O)CC1)NN=CC1=CC(=O)C(=O)CC1` [1,3-bis[[(Z)-(3-hydroxy-4-oxocyclohexa-2,5-dien-1-ylidene)methyl]amino]urea], half-maximal inhibition (IC50) required 1.03 µM. The figure for `O=C1C([N+](=O)[O-])=CC(Cl)=CC1C=NNC(=S)Nc1ccc(S(=O)(=O)N2CCOCC2)cc1` (configuration not stated) [1-[[(E)-(3-chloro-5-nitro-6-oxo-1-cyclohexa-2,4-dienylidene)methyl]amino]-3-[4-(4-morpholinylsulfonyl)phenyl]thiourea] is above 94.1 µM. For the compound `Nc1nnc(CC(=O)N/N=C/C2C=C([N+](=O)[O-])C=CC2=O)s1` (configuration not stated) [2-(5-amino-1,3,4-thiadiazol-2-yl)-N'-[(E)-(3-nitro-6-oxo-1-cyclohexa-2,4-dienylidene)methyl]acetohydrazide], the half-maximal inhibitory concentration (IC50) was above 94.1 µM. The figure for `O=C(CNC(=O)c1ccccc1Br)N/N=C/C1C=C([N+](=O)[O-])C=C(Br)C1=O` (configuration not stated) [2-bromanyl-N-[2-[2-[(E)-(5-bromanyl-3-nitro-6-oxidanylidene-cyclohexa-2,4-dien-1-ylidene)methyl]hydrazinyl]-2-oxidanylidene-ethyl]benzamide] is above 94.1 µM. For the compound `CCC(NNC(=O)c1ccccc1O)=C1C(=O)NC(=O)N(Cc2ccccc2)C1=O` [2-hydroxy-N'-[(1E)-1-[2,4,6-trioxo-1-(phenylmethyl)-1,3-diazinan-5-ylidene]propyl]benzohydrazide], the IC50 is above 94.1 µM. In the case of `O=C1NC(=O)N(CCc2ccccc2)C(=O)C1=CNNC(=O)c1ccccc1O` [2-hydroxy-N'-[(E)-[2,4,6-trioxo-1-(2-phenylethyl)-1,3-diazinan-5-ylidene]methyl]benzohydrazide] it was above 94 µM. For `O=C1C=CC([N+](=O)[O-])=CC1/C=N/n1c(COc2ccccc2)nc2ccccc2c1=O` (configuration not stated) [3-[[(E)-(3-nitro-6-oxocyclohexa-2,4-dien-1-ylidene)methyl]amino]-2-(phenoxymethyl)quinazolin-4-one], the IC50 was above 94.1 µM. In the case of `O=C1CC(=O)c2c(O)cc(O)c(O)c2C1=O` [4,5,7,8-tetrahydroxy-1,2-naphthoquinone] it was above 94.1 µM; in that of `Oc1c(Br)cc(CC=Nc2cc(O)c3cccnc3c2O)cc1Br` [7-[2-(3,5-dibromo-4-hydroxyphenyl)ethylamino]quinoline-5,8-dione], 18.8 µM; in that of `Oc1ccc(CN=Nc2ncnc3c2ncn3Cc2ccccc2)cc1O` [(4Z)-2-oxidanyl-4-[[2-[9-(phenylmethyl)purin-6-yl]hydrazinyl]methylidene]cyclohexa-2,5-dien-1-one], above 94.1 µM. In the case of `O=[N+]([O-])c1cc(Br)c(O)c(CN=Nc2nnnn2-c2cccc3ccccc23)c1` [(6E)-2-bromo-6-[[2-(1-naphthalen-1-yltetrazol-5-yl)hydrazinyl]methylidene]-4-nitrocyclohexa-2,4-dien-1-one], the concentration for half-maximal inhibition (IC50) is above 94.1 µM.

Regarding `CCc1n[nH]c(=S)n1N=CC1C=C(OC)C=C([N+](=O)[O-])C1=O` (configuration not stated) [(6E)-6-[[(3-ethyl-5-sulfanylidene-1H-1,2,4-triazol-4-yl)amino]methylidene]-4-methoxy-2-nitro-1-cyclohexa-2,4-dienone], the IC50 is 18.4 µM.

Compound `C=CCN1C(=O)/C(=N\NC(=O)CNC(=O)/C=C/c2ccco2)c2ccccc21` [(E)-N-[1-Allyl-2-oxo-1,2-dihydro-indol-(3Z)-ylidene-hydrazinocarbonylmethyl]-3-furan-2-yl-acrylamide] yielded a 50% inhibitory concentration (IC50) above 94.1 µM. In the case of `O=C(N/N=C/C1C=C([N+](=O)[O-])C=CC1=O)/C(=C\c1cccs1)NC(=O)c1ccccc1` (configuration not stated) [MLS000332530] it was above 94.1 µM; in that of `Cc1cc(C(=O)N/N=C/C2C=C(Br)C=C([N+](=O)[O-])C2=O)c2ccccc2n1` (configuration not stated) [MLS000585468], above 94.1 µM; in that of `Cc1cc(=O)oc2cc(OCC(=O)N/N=C/C3C=C([N+](=O)[O-])C=CC3=O)ccc12` (configuration not stated) [MLS000588734], above 94.1 µM. In the case of `COC1=CC(=O)C(/C=N/NC(=O)c2ccncc2)C(OC)=C1[N+](=O)[O-]` (configuration not stated) [MLS000673335] it was above 94.1 µM.

In turn, `Cc1cc2cc(CNC(=O)c3ccc(C)c([N+](=O)[O-])c3)ccc2[nH]1` [MLS000724615] registered a half-maximal inhibitory concentration (IC50) above 94.1 µM.

`O=C(CSc1nc2ccccc2s1)N/N=C/C1C=C([N+](=O)[O-])C=CC1=O` (configuration not stated) [MLS000777065]: the IC50 was above 94.1 µM. As to `O=C1C=CC([N+](=O)[O-])=CC1C=NNC(=S)Nc1ccc(Cl)cc1Cl` (configuration not stated) [MLS000777079], the concentration for half-maximal inhibition (IC50) is above 94.1 µM.

Consider `CC1=CC([N+](=O)[O-])=CC(/C=N/n2c(C)nc3ccccc3c2=O)C1=O` (configuration not stated) [MLS000778735], for which the IC50 is above 94 µM. Regarding `CN1C(=O)C(C=NNC(=O)c2cc3ccccc3cc2O)c2ccccc21` (configuration not stated) [MLS000912237], the half-maximal inhibitory concentration (IC50) was above 94.1 µM. In the case of `O=C(N/N=C/C1C=C(Cl)C=C([N+](=O)[O-])C1=O)c1cccc(S(=O)(=O)N2CCOCC2)c1` (configuration not stated) [MLS002155639], the concentration for half-maximal inhibition (IC50) was above 94.1 µM. For `O=C(N/N=C/C1C=C(Cl)C=C([N+](=O)[O-])C1=O)c1ccc2c(c1)OCO2` (configuration not stated) [N'-[(E)-(3-chloranyl-5-nitro-6-oxidanylidene-cyclohexa-2,4-dien-1-ylidene)methyl]-1,3-benzodioxole-5-carbohydrazide], the IC50 is above 94.1 µM. Compound `Cc1cc(C(=O)N/N=C/C2C=C(Cl)C=C([N+](=O)[O-])C2=O)c2ccccc2n1` (configuration not stated) [N'-[(E)-(3-chloranyl-5-nitro-6-oxidanylidene-cyclohexa-2,4-dien-1-ylidene)methyl]-2-methyl-quinoline-4-carbohydrazide] had an IC50 above 94.1 µM. With `CC1=CC([N+](=O)[O-])=CC(/C=N/NC(=O)C2COc3ccccc3O2)C1=O` (configuration not stated) [N'-[(E)-(5-methyl-3-nitro-6-oxocyclohexa-2,4-dien-1-ylidene)methyl]-2,3-dihydro-1,4-benzodioxine-3-carbohydrazide], the IC50 is above 94.2 µM. The figure for `O=C1NC(=O)N(Cc2ccco2)C(=O)C1=CNNC(=O)c1ccccc1O` [N'-[(E)-[1-(furan-2-ylmethyl)-2,4,6-tris(oxidanylidene)-1,3-diazinan-5-ylidene]methyl]-2-oxidanyl-benzohydrazide] is above 94 µM; for `O=C1NC(=O)N(Cc2ccco2)C(=O)C1=CNNC(=O)c1ccccc1` [N'-[(E)-[1-(furan-2-ylmethyl)-2,4,6-tris(oxidanylidene)-1,3-diazinan-5-ylidene]methyl]benzohydrazide] it is above 94.2 µM. Compound `Cc1ccccc1C(=O)Nc1cccc(C(=O)N/N=C/C2C=C(Cl)C=C([N+](=O)[O-])C2=O)c1` (configuration not stated) [N-(3-{[(2E)-2-(5-chloro-2-hydroxy-3-nitrobenzylidene)hydrazino]carbonyl}phenyl)-2-methylbenzamide] gave an IC50 above 94.1 µM. Take `Cc1ccc(C(=O)Nc2nc(C(C)(C)C)cs2)s1` [N-(4-tert-butyl-2-thiazolyl)-5-methyl-2-thiophenecarboxamide]: the IC50 is above 94.1 µM. Compound `O=C(NC(C(=O)NN=CC1C=C([N+](=O)[O-])C=CC1=O)c1n[nH]c(=O)c2ccccc12)c1ccccc1` (configuration not stated) [N-[2-[2-[(E)-(3-nitro-6-oxidanylidene-cyclohexa-2,4-dien-1-ylidene)methyl]hydrazinyl]-2-oxidanylidene-1-(4-oxidanylidene-3H-phthalazin-1-yl)ethyl]benzamide] returned a 50% inhibitory concentration (IC50) above 94.1 µM. In turn, `CC(NNC(=O)c1ccc(-c2ccccc2)cc1)=C1C(=O)c2ccccc2C1=O` [N-[(E)-1-(1,3-dioxoinden-2-yl)ethylideneamino]-4-phenylbenzamide] came in with a concentration for half-maximal inhibition (IC50) above 94.1 µM.

The compound `O=C(N/N=C/C1C=C([N+](=O)[O-])C=C([N+](=O)[O-])C1=O)/C(=C\c1cccs1)NC(=O)c1ccccc1` (configuration not stated) [SMR000207704] came in with an IC50 above 94.1 µM. `O=C1C([N+](=O)[O-])=CC=CC1/C=N/n1cnc2scc(-c3ccc(Cl)cc3)c2c1=O` (configuration not stated) [SMR000314525] registered a half-inhibitory concentration (IC50) above 94.1 µM.

In the case of `Cc1cc(C(=O)NN=CC2C=C(Cl)C=C([N+](=O)[O-])C2=O)[nH]n1` (configuration not stated) [SMR000414694], the half-maximal inhibitory concentration (IC50) was above 94.1 µM. As to `Cc1c(NC(=S)NN=CC2C=C([N+](=O)[O-])C=CC2=O)c(=O)n(-c2ccccc2)n1C` (configuration not stated) [SMR000415003], the IC50 was above 94.1 µM.

Take `COc1ccc(C(=O)CC=NNC(=O)c2ccc(Cl)cc2)cc1` [SMR000499516]: the IC50 was above 94.1 µM.

For `O=Nc1[nH]c(=O)c(CC(=O)c2ccccc2)nc1NO` [SMR000539633], the IC50 is above 94.2 µM. The figure for `O=C(O)c1ccccc1NS(=O)(=O)c1ccc(N=NCc2ccc(O)c(O)c2)c([N+](=O)[O-])c1` [SMR001238114] is 32.5 µM; for `CCOC(=O)c1c(C)[nH]c(C(=O)N/N=C/C2C=C([N+](=O)[O-])C=CC2=O)c1C` (configuration not stated) [ethyl 2,4-dimethyl-5-[[[(E)-(3-nitro-6-oxocyclohexa-2,4-dien-1-ylidene)methyl]amino]carbamoyl]-1H-pyrrole-3-carboxylate] it is above 94.1 µM.
